This is an account of results in patent US20120053197A1, “TRICYCLIC PYRIDINE DERIVATIVES, MEDICAMENTS CONTAINING SUCH COMPOUNDS, THEIR USE AND PROCESS FOR THEIR PREPARATION” (BOEHRINGER INGELHEIM INTERNATIONAL GMBH, priority 2010, published 2012).

The target of this assay is T1, recombinant human CETP (Homo sapiens, UniProt P11597).
T1 construct: made in house; host or cells: CHO cells (protein secreted into conditioned medium)
T1 sequence (P11597 18-493): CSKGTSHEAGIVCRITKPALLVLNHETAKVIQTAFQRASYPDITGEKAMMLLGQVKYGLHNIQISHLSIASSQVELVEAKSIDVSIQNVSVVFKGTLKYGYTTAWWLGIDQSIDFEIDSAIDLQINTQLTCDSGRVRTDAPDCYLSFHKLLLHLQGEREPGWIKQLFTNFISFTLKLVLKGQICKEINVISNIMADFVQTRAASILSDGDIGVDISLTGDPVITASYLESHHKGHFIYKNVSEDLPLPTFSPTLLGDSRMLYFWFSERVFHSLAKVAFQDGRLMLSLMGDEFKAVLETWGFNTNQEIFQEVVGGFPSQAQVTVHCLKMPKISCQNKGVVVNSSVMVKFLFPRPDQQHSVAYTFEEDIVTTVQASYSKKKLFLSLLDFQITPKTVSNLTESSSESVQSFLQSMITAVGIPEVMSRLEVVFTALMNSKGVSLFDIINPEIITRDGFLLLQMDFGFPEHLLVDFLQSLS
The assay can be described thus: CETP in vitro fluorometric assay (Roar Biomedical), cholesterol ester transfer from HDL to LDL. Type of assay: biochemical. Particulars: recombinant human CETP from CHO cells; 3 hours at 37° C.; fluorescence ex 485 nm / em 535 nm; compound concentrations between 1 nM and 30 μM; read-out: IC50 values for inhibition of CETP. The protocol: CETP inhibitory activity of compounds of the present invention can be determined in a fluorometric assay puchased from Roar Biomedical, Inc. (New York, N.Y., USA). […] Recombinant human CETP was partially purified from medium conditioned by CETP expressing CHO cells. In a 384 well format 2.5 μl of compound solution in DMSO was combined with 2 μl of donor solution, 2 μl of acceptor solution and 0.8 μl of recombinant human CETP solution in a total volume of 100 μl with assay buffer and incubated for 3 hours at 37° C. The fluorescence intensity was measured at excitation wavelength of 485 nm and emission wavelength of 535 nm. IC50 values are calculated from dose effect curves from compound concentrations between 1 nM and 30 μM.
Consider `CC1(C)Cc2nc(C3CCOCC3)c3c(c2[C@@H](O)C1)C1(CCCC1)O[C@H]3c1ccc(C(F)(F)F)cc1` [1(13), (3′S,9′S)-7′,7′-dimethyl-4′-(tetrahydro-2H-pyran-4-yl)-3′-(4-(trifluoromethyl)phenyl)-6′,7′,8′,9′-tetrahydro-3′H-spiro[cyclopentane-1,1′-furo[3,4-c]quinolin]-9′-ol], for which the IC50 was determined as 6890 nM.
Regarding `Cc1ccc([C@H]2OC3(CCCC3)c3c2c(C(C)C)nc2c3[C@@H](O)CC(C)(C)C2)cc1` [1(14), (3′R,9′S)-4′-isopropyl-7′,7′-dimethyl-3′-p-tolyl-6′,7′,8′,9′-tetrahydro-3′H-spiro[cyclopentane-1,1′-furo[3,4-c]quinolin]-9′-ol], the IC50 is 409 nM.
As for `CC(C)c1nc2c(c3c1[C@@H](c1ccc(C(F)(F)F)cc1)OC31CCCC1)[C@@H](O)CC1(CCC1)C2` [1(15), (3′R,9′S)-4′-isopropyl-7′,7′-(propan-1,3-diyl)-3′-(4-(trifluoromethyl)phenyl)-6′,7′,8′,9′-tetrahydro-3′H-spiro[cyclopentane-1,1′-furo[3,4-c]quinolin]-9′-ol], the IC50 is 21 nM.
As for `CC(C)c1nc2c(c3c1[C@@H](c1ccc(C(F)(F)F)c(F)c1)OC31CCCC1)[C@@H](O)CC(C)(C)C2` [1(16), (3′R,9′S)-3′-(3-fluoro-4-(trifluoromethyl)phenyl)-4′-isopropyl-7′,7′-dimethyl-6′,7′,8′,9′-tetrahydro-3′H-spiro[cyclopentane-1,1′-furo[3,4-c]quinolin]-9′-ol], the half-maximal inhibitory concentration (IC50) worked out at 43 nM.
`CC(C)c1nc2c(c3c1[C@@H](c1ccc(OC(F)(F)F)cc1)OC31CCCC1)[C@@H](O)CC(C)(C)C2` [1(17), (3′R,9′S)-4′-isopropyl-7′,7′-dimethyl-3′-(4-(trifluoromethoxy)phenyl)-6′,7′,8′,9′-tetrahydro-3′H-spiro[cyclopentane-1,1′-furo[3,4-c]quinolin]-9′-ol]: the IC50 came to 131 nM.
In the case of `CC(C)c1nc2c(c3c1[C@@H](c1ccc(C(C)(C)C)cc1)OC3(C)C)[C@@H](O)CC(C)(C)C2` [1(18), (3R,9S)-3-(4-tert-butylphenyl)-4-isopropyl-1,1,7,7-tetramethyl-1,3,6,7,8,9-hexahydrofuro[3,4-c]quinolin-9-ol], the IC50 came out at 363 nM.
For the compound `CC1(C)Cc2nc(C3CCCC3)c3c(c2[C@@H](O)C1)C(C)(C)O[C@@H]3c1ccc(C(C)(C)C)cc1` [1(19), (3R,9S)-3-(4-tert-butylphenyl)-4-cyclopentyl-1,1,7,7-tetramethyl-1,3,6,7,8,9-hexahydrofuro[3,4-c]quinolin-9-ol], the half-maximal inhibitory concentration (IC50) was determined as 351 nM.
Then `CC(C)c1nc2c(c3c1[C@@H](c1ccc(C#N)cc1)OC31CCCC1)[C@@H](O)CC(C)(C)C2` [1(20), 4-((3′R,9′S)-9′-hydroxy-4′-isopropyl-7′,7′-dimethyl-6′,7′,8′,9′-tetrahydro-3′H-spiro[cyclopentane-1,1′-furo[3,4-c]quinoline]-3′-yl)benzonitrile], with 1080 nM; and `CC(C)c1nc2c(c3c1[C@@H](c1ccc(C(F)(F)F)cn1)OC31CCCC1)[C@@H](O)CC(C)(C)C2` [1(21), (3′S,9′S)-4′-isopropyl-7′,7′-dimethyl-3′-(5-(trifluoromethyl)pyridin-2-yl)-6′,7′,8′,9′-tetrahydro-3′H-spiro[cyclopentane-1,1′-furo[3,4-c]quinolin]-9′-ol], with 124 nM; and `CC(C)c1nc2c(c3c1[C@@H](c1ccc(C(C)(C)C#N)cc1)OC31CCCC1)[C@@H](O)CC(C)(C)C2` [1(22), 2-(4-((3′R,9′S)-9′-hydroxy-4′-isopropyl-7′,7′-dimethyl-6′,7′,8′,9′-tetrahydro-3′H-spiro[cyclopentane-1,1′-furo[3,4-c]quinoline]-3′-yl)phenyl)-2-methylpropanenitrile], with 47 nM.
With `CC(C)c1nc2c(c3c1[C@H](c1ccc(C(C)(C)C#N)cc1)OC31CCCC1)[C@@H](O)CC(C)(C)C2` [1(23), 2-(4-((3′S,9′S)-9′-hydroxy-4′-isopropyl-7′,7′-dimethyl-6′,7′,8′,9′-tetrahydro-3′H-spiro[cyclopentane-1,1′-furo[3,4-c]quinoline]-3′-yl)phenyl)-2-methylpropanenitrile], the IC50 stood at 2140 nM.
Consider `CC(C)c1nc2c(c3c1[C@@H](c1ccc(C(F)(F)F)s1)OC31CCCC1)[C@@H](O)CC(C)(C)C2` [1(24), (3′S,9′S)-4′-isopropyl-7′,7′-dimethyl-3′-(5-(trifluoromethyl)thiophen-2-yl)-6′,7′,8′,9′-tetrahydro-3′H-spiro[cyclopentane-1,1′-furo[3,4-c]quinolin]-9′-ol], for which the IC50 came to 286 nM.
Take `CC(C)c1nc2c(c3c1[C@@H](c1cnc(C(C)(C)C)nc1)OC31CCCC1)[C@@H](O)CC(C)(C)C2` [1(25), (3′R,9′S)-3′-(2-tert-butylpyrimidin-5-yl)-4′-isopropyl-7′,7′-dimethyl-6′,7′,8′,9′-tetrahydro-3′H-spiro[cyclopentane-1,1′-furo[3,4-c]quinolin]-9′-ol]: the IC50 is 772 nM.
Then `CC(C)c1nc2c(c3c1[C@@H](c1ccc(C(C)(C)O)cc1)OC31CCCC1)[C@@H](O)CC(C)(C)C2` [1(26), (3′R,9′S)-3′-(4-(2-hydroxypropan-2-yl)phenyl)-4′-isopropyl-7′,7′-dimethyl-6′,7′,8′,9′-tetrahydro-3′H-spiro[cyclopentane-1,1′-furo[3,4-c]quinolin]-9′-ol], with 875 nM; and `CC(C)Cc1ccc([C@H]2OC3(CCCC3)c3c2c(C(C)C)nc2c3[C@@H](O)CC(C)(C)C2)cc1` [1(27), (3′R,9′S)-3′-(4-isobutylphenyl)-4′-isopropyl-7′,7′-dimethyl-6′,7′,8′,9′-tetrahydro-3′H-spiro[cyclopentane-1,1′-furo[3,4-c]quinolin]-9′-ol], with 299 nM; and `CC1(C)Cc2nc(C3CCC3)c3c(c2[C@@H](O)C1)C1(CCCC1)O[C@@H]3c1ccc(C(F)(F)F)cc1` [1(28), (3′R,9′S)-4′-cyclobutyl-7′,7′-dimethyl-3′-(4-(trifluoromethyl)phenyl)-6′,7′,8′,9′-tetrahydro-3′H-spiro[cyclopentane-1,1′-furo[3,4-c]quinolin]-9′-ol], with 51 nM.
`CC(C)c1ccc([C@H]2OC3(CCCC3)c3c2c(C2CCCC2)nc2c3[C@@H](O)CC(C)(C)C2)cc1` [1(29), (3′R,9′S)-4′-cyclopentyl-3′-(4-isopropylphenyl)-7′,7′-dimethyl-6′,7′,8′,9′-tetrahydro-3′H-spiro[cyclopentane-1,1′-furo[3,4-c]quinolin]-9′-ol]: the IC50 worked out at 88 nM.
For the compound `CC(C)c1nc2c(c3c1[C@@H](c1ccc(C(F)(F)F)cc1)OC31CCOCC1)[C@@H](O)CC(C)(C)C2` [1(30), (3R,9S)-4-isopropyl-7,7-dimethyl-3-(4-(trifluoromethyl)phenyl)-2′,3′,5′,6,6′,7,8,9-octahydro-3H-spiro[furo[3,4-c]quinoline-1,4′-pyran]-9-ol], the concentration for half-maximal inhibition (IC50) was determined as 18 nM.
On to `CC1(C)Cc2nc(C3CCCC3)c3c(c2[C@@H](O)C1)C1(CCCC1)O[C@@H]3c1cccc(C(C)(C)C)c1` [1(31), (3′R,9′S)-3′-(3-tert-butylphenyl)-4′-cyclopentyl-7′,7′-dimethyl-6′,7′,8′,9′-tetrahydro-3′H-spiro[cyclopentane-1,1′-furo[3,4-c]quinolin]-9′-ol], for which the IC50 is 1070 nM.
Then `CC(C)c1nc2c(c3c1[C@@H](c1ccc(C(C)(F)F)cc1)OC31CCCC1)[C@@H](O)CC(C)(C)C2` [1(32), (3′R,9′S)-3′-(4-(1,1-difluoroethyl)phenyl)-4′-isopropyl-7′,7′-dimethyl-6′,7′,8′,9′-tetrahydro-3′H-spiro[cyclopentane-1,1′-furo[3,4-c]quinolin]-9′-ol], with 62 nM; and `CC(=O)O[C@H]1c2nc(C(C)C)c3c(c2[C@@H](O)CC1(C)C)C1(CCCC1)O[C@@H]3c1ccc(C(F)(F)F)cc1` [1(33), (3′R,6′R,9′S)-9′-hydroxy-4′-isopropyl-7′,7′-dimethyl-3′-(4-(trifluoromethyl)phenyl)-6′,7′,8′,9′-tetrahydro-3′H-spiro[cyclopentane-1,1′-furo[3,4-c]quinoline]-6′-yl acetate], with 229 nM.
On to `CC(=O)O[C@@H]1c2nc(C(C)C)c3c(c2[C@@H](O)CC1(C)C)C1(CCCC1)O[C@@H]3c1ccc(C(F)(F)F)cc1` [1(34), (3′R,6′S,9′S)-9′-hydroxy-4′-isopropyl-7′,7′-dimethyl-3′-(4-(trifluoromethyl)phenyl)-6′,7′,8′,9′-tetrahydro-3′H-spiro[cyclopentane-1,1′-furo[3,4-c]quinoline]-6′-yl acetate], for which the IC50 turned out to be 137 nM.
Turning to `CC(C)c1ccc([C@H]2OC3(CCCC3)c3c2c(C(C)C)nc2c3[C@@H](O)CC3(CCC3)C2)cc1` [1(35), (3′R,9′S)-4′-isopropyl-7′,7′-(propan-1,3-diyl)-3′-(4-(isopropyl)phenyl)-6′,7′,8′,9′-tetrahydro-3′H-spiro[cyclopentane-1,1′-furo[3,4-c]quinolin]-9′-ol], the IC50 amounted to 52 nM.

Broadly, the IC50 is the concentration that gives 50% inhibition.
